In one data set the test system is human CETP mRNA. The experiment in a line: Dose-dependent antisense inhibition of human CETP in SW872 liposarcoma cells (Example 3). The class given is cell-based. The conditions noted are these: Lipofectin, ~16 hours (Example 3). The method, then:
ISIS 17291 ([…], 6-8-6 MOE (SEQ ID NO: 115)), ISIS 17302 ([…], 6-8-6 MOE (SEQ ID NO: 116)), and ISIS 17305 ([…], 6-8-6 MOE (SEQ ID NO: 117), first disclosed in U.S. Ser. No. 11/031,827 (incorporated by reference herein), were also tested under the same conditions. Cells were plated at a density of 50,000 cells per well in a 24-well plate and transfected using Lipofectin reagent with 50 nM, 150 nM, and 300 nM concentrations of each antisense oligonucleotide. After approximately 16 hours, RNA was isolated from the cells and CETP mRNA levels were measured by quantitative real-time PCR. CETP mRNA levels were normalized to total RNA content, as measured by the house-keeping gene, GAPDH mRNA levels. Results are presented in Table 5 as percent inhibition of CETP, relative to untreated control cells.

The conditions of data set [1]: mouse, in vivo, sc, 25 mg/kg. From the text:
The saline-injected group served as the control group to which oligonucleotide-treated groups were compared. […] This group served a negative control for the effects of the antisense oligonucleotides against CETP. The groups are further described in Table 27, and are designated letters A-F, by which they will be referred from henceforth.

Another data set concerns CETP mRNA. Kind of data set: Liver CETP mRNA in huCETP transgenic mice on Western diet (Example 8). The class given is in vivo, human. The conditions noted are these: 25 mg/kg s.c. twice per week for 2 weeks, relative to PBS control. On the procedure: Male transgenic mice were maintained on a 12-hour light/dark cycle and were fed ad libitum the Western diet (TD88137; 42% cal from fat, 0.2% cholesterol; Harlan Laboratories, Indianapolis, Ind.). Animals were acclimated for at least 7 days in the research facility before initiation of the experiment and were maintained on this diet throughout the study period. Antisense oligonucleotides (ASOs) were prepared in phosphate buffered saline (PBS) and sterilized by filtering through a 0.2 micron filter. Oligonucleotides were dissolved in 0.9% PBS for injection.
(§1) The mice were divided into two groups of 4-6 mice each.
Twenty four hours after the final dose, the animals were sacrificed and liver tissue was isolated.
Liver RNA was isolated for real-time PCR analysis of CETP. The primer probe set hCETP was used to measure CETP levels. […] The RNA expression levels were normalized to murine Cyclophilin. The results are expressed as percent inhibition of CETP mRNA, relative to the PBS control.

A further data set deals with CETP protein. The experiment in a line: Plasma CETP protein by ELISA (Example 8). The class given is in vivo, human. The conditions noted are these: huCETP transgenic mice, Western diet; 25 mg/kg s.c. twice per week for 2 weeks; relative to PBS control. On the procedure: as §1
Plasma CETP protein levels were measured by ELISA (Alpco). […] The results are expressed as percent inhibition of CETP protein, relative to the PBS control.

Another data set has as its system CETP activity. Kind of data set: CETP activity assay kit (Example 8). The class given is in vivo, human. The conditions noted are these: huCETP transgenic mice, Western diet; 25 mg/kg s.c. twice per week for 2 weeks; relative to PBS control. The method, then: as §1
CETP activity levels were measured using a CETP activity assay kit (Roar Biomedical Inc., New York, N.Y.). […] The results are expressed as percent inhibition of CETP activity, relative to the PBS control.

A short description of data set [2]: Plasma cholesterol and triglyceride levels (Example 8). The class given is in vivo. The conditions noted are these: huCETP transgenic mice, Western diet. The method, then:
as §1
Plasma cholesterol were extracted at week 6 by the method of Bligh and Dyer (Bligh, E. G. and Dyer, W. J. Can. J. Biochem. Physiol. 37: 911-917, 1959) and measured with an Olympus clinical analyzer (Hitachi Olympus AU400e, Melville, N.Y.). HDL and LDL cholesterol were individually measured by HPLC. Triglyceride levels were measured with the use of a commercially available triglyceride kit (DCL Triglyceride Reagent; Diagnostic Chemicals Ltd., Charlottetown, Canada). The results are presented in Table 41 and are expressed in mg/dL.

Data set [3] in a line: Liver function, plasma ALT and AST (Example 8). The class given is in vivo. The conditions noted are these: huCETP transgenic mice, Western diet; 25 mg/kg s.c. twice per week for 2 weeks.
Text: as §1

The mark [4] stands for this setting: 25 mg/kg s.c. twice per week for 2 weeks.

e = 2'-O-(2-methoxyethyl) (MOE); d = 2'-deoxy (DNA)

As to “ISIS 349517: 5-10-5 MOE gapmer CAGCACTTTAATGCCAGTGG (sugars from the 5' end e5 d10 e5, backbone and methylation of C not given here)”, in the data set on human CETP mRNA (50 nM), the “percent inhibition of CETP” value was determined as 76%. Besides, in the data set with human CETP mRNA (150 nM), the “percent inhibition of CETP” value is 91%. For the same substance, in the data set with human CETP mRNA (300 nM), the “percent inhibition of CETP” value is 93%. Moreover, in data set [1], the “Organ weights, Kidney” value is on record as 0.39; the “Organ weights, Liver” value worked out at 1.51; the “Organ weights, Spleen” value turned out to be 0.09. In addition, in the data set on CETP mRNA, the “Percent inhibition of liver CETP mRNA expression” value was 84%. Further, in the data set on CETP protein, the “Percent inhibition of plasma CETP protein levels” value was 96%. In addition, in the data set with CETP activity, the “Percent inhibition of CETP activity” value is reported as 73%. In data set [2] (setting [4]), the “HDL % at week 0” value was 39%, the HDL cholesterol is reported as 155 mg/dL, the “LDL Cholesterol” value is on record as 48 mg/dL and the Total cholesterol was 212 mg/dL. Also, in data set [2] (setting [4]), the Triglycerides turned out to be 58 mg/dL. For the same substance, in data set [2] (25 mg/kg s.c. twice per week, on week 3), the “increase in HDL levels compared to the PBS control” value is listed as 30%. In addition, in data set [3], the “Transaminase levels, ALT” value is on record as 26 IU/L and the “Transaminase levels, AST” value is on record as 38 IU/L.

Values taken from US20130053430A1, “MODULATION OF CETP EXPRESSION” (Isis Pharmaceuticals, Inc., priority 2010, published 2013).
